Broadly, the half-life is the time in which the quantity being followed falls by half. A high value points to slow decline.

The results in this text go back to ChEMBL document CHEMBL1121648, “Metabolism of 1,3-bis(2-chloroethyl)-1-nitrosourea by rat hepatic microsomes” (J Med Chem, 1981).

One data set is filed under the species Rattus norvegicus. Kind of data set: NADPH-dependent metabolic rate was measured in rat liver microsomal preparations. The format is functional. (Liver microsomes are a subcellular fraction often used to study metabolism.)
The nature of data set [1]: Half-life for disappearance of compound measured at 37 degree C and pH 7.4 in rat liver microsomal preparations. The conditions noted are these: liver microsomes. The class given is ADME.

`O=C(NCCCl)NCCCl`: the Rate (nM (mg of protein)-1) in the data set filed under Rattus norvegicus is 54.

In the case of `O=NN(CCCl)C(=O)NCCCl` [CARMUSTINE], the half-life in data set [1] was determined as 1.5 h. The molecule also gave a Rate (nM (mg of protein)-1) in the data set listed under Rattus norvegicus of 56.
